Results from paper PMC11603275, “Synthesis and Antimicrobial Evaluation of New 1,2,4-Triazolo[1,5-a]pyrimidine-Based Derivatives as Dual Inhibitors of Bacterial DNA Gyrase and DHFR” (ACS Omega, 2024).
≈ marks a conversion by molar mass, not a printed value. Where two headings read alike, the source gives them in different places.

Key:
[1] = test system: E. coli; experiment: Modified disk diffusion, inhibition zone; conditions: E. coli (G-)
[2] = test system: P. aeruginosa; experiment: Modified disk diffusion, inhibition zone; conditions: P. aeruginosa (G-)
[3] = test system: C. albicans; experiment: Modified disk diffusion, inhibition zone; conditions: C. albicans (fungi)
[4] = test system: B. subtilis; experiment: Modified disk diffusion, inhibition zone; conditions: B. subtilis (G+)
[5] = test system: S. aureus; experiment: Modified disk diffusion, inhibition zone; conditions: S. aureus (G+)
[6] = test system: A. flavus; experiment: Modified disk diffusion, inhibition zone; conditions: A. flavus (fungi)
[7] = test system: B. subtilis; experiment: Minimum bactericidal concentration (MBC) assay; type: cell-based, Bacillus subtilis
Source text: (§1) The MBC differs from the MIC. […] Unlike the MBC, which leads to mortality, the MIC hinders bacterial growth without causing death.[41] The common expression for MBC is MBC50, signifying the antibiotic concentration that eliminates 50% of the initial bacterial population.[42]

[8] = test system: S. aureus; experiment: MIC assay, 2-fold serial dilution in 96-well microtiter plate; type: cell-based, Staphylococcus aureus (ATCC 12600); conditions: Staphylococcus aureus, read-out: MIC
Protocol: (§2) The outcomes of this in vitro assay test align with the results of the antimicrobial sensitivity test.
(§3) Appendix A (Supplementary File) provides experimental details.
(§4) In 96-well microtiter plates and […] of fresh bacterial culture of a single McFarland unit overnight, a double serial dilution of each compound […] in sterile standard saline were prepared to every single source well. […] The plates were incubated at 37 °C overnight. As an indicator of bacterial growth, […] of p-iodonitrotetrazolium violet (INT) was added to each well and incubated at 37 °C for 30 min. […] The colorless tetrazolidium salt acts as an electron accepter and is reduced to a red colored formazan product by biological activity organisms. Where bacterial growth was inhibited, the solution in the well remained clear after incubation with INT.

[9] = molecular target: T1, E. coli DNA gyrase (Escherichia coli, UniProt P0AES6); experiment: DNA gyrase inhibitory (supercoiling) assay; type: biochemical
T1 construct: purchased Inspiralis

[10] = test system: A. flavus; experiment: Antifungal MIC assay, 2-fold serial dilution; type: cell-based, Aspergillus flavus; conditions: Aspergillus flavus, read-out: MIC
[11] = test system: P. aeruginosa; experiment: Minimum bactericidal concentration (MBC) assay; type: cell-based, Pseudomonas aeuroginosa
Source text: as §1

[12] = test system: C. albicans; experiment: Antifungal MIC assay, 2-fold serial dilution; type: cell-based, Candida albicans; conditions: Candida albicans, read-out: MIC
[13] = test system: E. coli; experiment: Minimum bactericidal concentration (MBC) assay; type: cell-based, Escherichia coli
Source text: as §1

[14] = test system: P. aeruginosa; experiment: MIC assay, 2-fold serial dilution in 96-well microtiter plate; type: cell-based, Pseudomonas aeuroginosa (ATCC 10145); conditions: Pseudomonas aeruginosa, read-out: MIC
Protocol: as §2, §3, §4

[15] = test system: S. aureus; experiment: Minimum bactericidal concentration (MBC) assay; type: cell-based, Staphylococcus aureus; conditions: Staphylococcus aureus, read-out: MBC
Source text: as §1

[16] = test system: E. coli; experiment: MIC assay, 2-fold serial dilution in 96-well microtiter plate; type: cell-based, Escherichia coli (ATCC 11775); conditions: Escherichia coli, read-out: MIC
Protocol: as §2, §3, §4

[17] = molecular target: T2, DHFR E. coli (Escherichia coli, UniProt P0ABQ4); experiment: DHFR inhibitory assay; type: biochemical
T2 construct: purchased Inspiralis
T2 sequence (P0ABQ4 whole entry): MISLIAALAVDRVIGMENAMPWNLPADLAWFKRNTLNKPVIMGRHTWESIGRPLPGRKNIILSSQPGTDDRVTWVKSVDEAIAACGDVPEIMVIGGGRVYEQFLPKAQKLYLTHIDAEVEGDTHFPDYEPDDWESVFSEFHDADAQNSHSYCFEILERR

[18] = test system: B. subtilis; experiment: MIC assay, 2-fold serial dilution in 96-well microtiter plate; type: cell-based, Bacillus subtilis (ATCC 6051); conditions: for MIC: Bacillus subtilis, read-out: MIC
Protocol: as §2, §3, §4

[19] = test system: Gram-positive and Gram-negative bacteria (B. subtilis, S. aureus, E. coli, P. aeruginosa); experiment: Disk diffusion, inhibition zones summarised over the tested bacterial strains; conditions: over the four tested bacterial strains
[20] = Bacillus subtilis, read-out: MBC
[21] = Pseudomonas aeruginosa, read-out: MBC
[22] = Escherichia coli, read-out: MBC

Row | melting point | Compound | Inhibition Zone (IZ) Diameter [1] | Inhibition Zone (IZ) Diameter [2] | Inhibition Zone (IZ) Diameter [3] | Inhibition Zone (IZ) Diameter [4] | Inhibition Zone (IZ) Diameter [5] | Inhibition Zone (IZ) Diameter [6] | further results
1 | 210 to 212 °C | c1ccc(-c2cc(-c3ccccc3)n3nc(-c4ccccc4)nc3n2)cc1 [Compound 9a, 2,5,7-Triphenyl-1,2,4-triazolo[1,5-a]pyrimidine] | 14 mm/mL | 12 mm/mL | 10 mm | 12 mm/mL | 14 | 7 mm/mL | –
2 | 214 to 216 °C | Clc1ccc(-c2cc(-c3ccccc3)nc3nc(-c4ccccc4)nn23)cc1 [Compound 9b, 7-(4-Chlorophenyl)-2,5-diphenyl-1,2,4-triazolo[1,5-a]pyrimidine] | 23 mm/mL | 24 mm/mL | 15 mm | 21 mm/mL | 23 | 11 mm/mL | –
3 | 218 to 220 °C | Cc1ccc(-c2cc(-c3ccccc3)nc3nc(-c4ccccc4)nn23)cc1 [Compound 9c, 2,5-Diphenyl-7-p-tolyl-1,2,4-triazolo[1,5-a]pyrimidine] | 13 mm/mL | 13 mm/mL | 10 mm | 11 mm/mL | 15 | 7 mm/mL | –
4 | – | COc1ccc(-c2cc(-c3ccccc3)nc3nc(-c4ccccc4)nn23)cc1 [Compound 9d, 7-(4-Methoxyphenyl)-2,5-diphenyl-1,2,4-triazolo[1,5-a]pyrimidine] | 33 mm/mL | 34 mm/mL | 30 mm | 35 mm/mL | 35 | 27 mm/mL | MBC [7, 20]: 0.064 ± 0.003 µM (≈ 0.0242 µg/mL); MIC [8]: 0.039 ± 0.002 µM (≈ 0.0148 µg/mL); IC50 [9]: 217 ± 13 nM; MIC [10]: 21.5 ± 1 µM (≈ 8.14 µg/mL); MBC [11, 21]: 0.109 ± 0.007 µM (≈ 0.0412 µg/mL); MIC [12]: 26.3 ± 1 µM (≈ 9.95 µg/mL); MBC [13, 22]: 0.102 ± 0.007 µM (≈ 0.0386 µg/mL); MIC [14]: 0.075 ± 0.005 µM (≈ 0.0284 µg/mL); MBC [15]: 0.071 ± 0.004 µM (≈ 0.0269 µg/mL); MIC [16]: 0.073 ± 0.005 µM (≈ 0.0276 µg/mL); IC50 [17]: 5900 ± 200 nM; MIC [18]: 0.038 ± 0.002 µM (≈ 0.0144 µg/mL)
5 | 260 to 262 °C | Clc1ccc(-c2cc(-c3ccccc3)n3nc(-c4ccccc4)nc3n2)cc1 [Compound 9e, 5-(4-Chlorophenyl)-2,7-diphenyl-1,2,4-triazolo[1,5-a]pyrimidine] | 12 mm/mL | 11 mm/mL | 8 mm | 10 mm/mL | 12 | 5 mm/mL | –
6 | 202 to 204 °C | Clc1ccc(-c2cc(-c3ccc(Cl)cc3)n3nc(-c4ccccc4)nc3n2)cc1 [Compound 9f, 5,7-Bis(4-Chlorophenyl)-2-phenyl-1,2,4-triazolo[1,5-a]pyrimidine] | 15 mm/mL | 18 mm/mL | 12 mm | 14 mm/mL | 15 | 8 mm/mL | –
7 | – | COc1ccc(-c2cc(-c3ccc(Cl)cc3)nc3nc(-c4ccccc4)nn23)cc1 [Compound 9h, 5-(4-Chlorophenyl)-7-(4-methoxyphenyl)-2-phenyl-1,2,4-triazolo[1,5-a]pyrimidine] | 11 mm/mL | 12 mm/mL | – | 9 mm/mL | – | 5 mm/mL | –
8 | – | Cc1ccc(-c2cc(-c3ccccc3)n3nc(-c4ccccc4)nc3n2)cc1 [Compound 9i, 2,7-Diphenyl-5-p-tolyl-1,2,4-triazolo[1,5-a]pyrimidine] | 30 mm/mL | 29 mm/mL | – | 28 mm/mL | – | 17 mm/mL | –
9 | – | Cc1ccc(-c2cc(-c3ccc(Cl)cc3)n3nc(-c4ccccc4)nc3n2)cc1 [Compound 9j, 7-(4-Chlorophenyl)-2-phenyl-5-p-tolyl-1,2,4-triazolo[1,5-a]-pyrimidine] | 20 mm/mL | 20 mm/mL | – | 20 mm/mL | – | 10 mm/mL | –
10 | 222 to 224 °C | COc1ccc(-c2cc(-c3ccc(C)cc3)nc3nc(-c4ccccc4)nn23)cc1 [Compound 9l, 7-(4-Methoxyphenyl)-2-phenyl-5-p-tolyl-1,2,4-triazolo[1,5-a]pyrimidine] | 23 mm/mL | 22 mm/mL | 17 mm | 23 mm/mL | 26 | 15 mm/mL | –
11 | – | COc1ccc(-c2cc(-c3ccc(Cl)cc3)n3nc(-c4ccccc4)nc3n2)cc1 [Compound 9n, 7-(4-Chlorophenyl)-5-(4-methoxyphenyl)-2-phenyl-1,2,4-triazolo[1,5-a]pyrimidine] | 40 mm/mL | 40 mm/mL | 36 mm | 40 mm/mL | 41 | 32 mm/mL | MBC [7]: 0.049 ± 0.002 µM (≈ 0.0202 µg/mL); folds less potent than ciprofloxacin as a bactericidal agent (MBC) [7]: 2.6; MBC [7, 20]: 0.049 µM (≈ 0.0202 µg/mL); Inhibition Zone (IZ) Diameter [19]: approximately 40 mm; MIC [8]: 0.033 ± 0.002 µM (≈ 0.0136 µg/mL); IC50 [9]: 190 ± 11 nM; MIC [10]: 18.5 ± 1 µM (≈ 7.64 µg/mL); MBC [11]: 0.094 ± 0.006 µM (≈ 0.0388 µg/mL); MBC [11, 21]: 0.094 µM (≈ 0.0388 µg/mL); MIC [12]: 21.9 ± 1 µM (≈ 9.04 µg/mL); MBC [13]: 0.093 ± 0.006 µM (≈ 0.0384 µg/mL); MBC [13, 22]: 0.093 µM (≈ 0.0384 µg/mL); MIC [14]: 0.064 ± 0.005 µM (≈ 0.0264 µg/mL); MBC [15]: 0.065 ± 0.002 µM (≈ 0.0268 µg/mL); MIC [16]: 0.065 ± 0.004 µM (≈ 0.0268 µg/mL); IC50 [17]: 4600 ± 200 nM; times less effective than ciprofloxacin (MIC) [18]: 3; MIC [18]: 0.029 ± 0.002 µM (≈ 0.012 µg/mL)

Row | Compound | melting point | Inhibition Zone (IZ) Diameter [1] | Inhibition Zone (IZ) Diameter [2] | Inhibition Zone (IZ) Diameter [3] | Inhibition Zone (IZ) Diameter [4] | Inhibition Zone (IZ) Diameter [5] | Inhibition Zone (IZ) Diameter [6] | further results
12 | Cc1ccc(-c2cc(-c3ccc(Cl)cc3)nc3nc(-c4ccccc4)nn23)cc1 [Compound 9g, 5-(4-Chlorophenyl)-2-phenyl-7-p-tolyl-1,2,4-triazolo[1,5-a]pyrimidine] | 248 to 250 °C | 20 mm/mL | 18 mm/mL | 11 mm | 19 mm/mL | 20 | 9.0 mm/mL | Inhibition Zone (IZ) Diameter [19]: 18–20 mm
13 | Cc1ccc(-c2cc(-c3ccc(C)cc3)n3nc(-c4ccccc4)nc3n2)cc1 [Compound 9k, 2-Phenyl-5,7-di-p-tolyl-1,2,4-triazolo[1,5-a]pyrimidine] | 224 to 226 °C | 30 mm/mL | 30 mm/mL | 25 mm | 32 mm/mL | 32 | 22 mm/mL | Inhibition Zone (IZ) Diameter [19]: 30–32 mm
14 | COc1ccc(-c2cc(-c3ccccc3)n3nc(-c4ccccc4)nc3n2)cc1 [Compound 9m, 5-(4-Methoxyphenyl)-2,7-diphenyl-1,2,4-triazolo[1,5-a]pyrimidine] | 222 to 224 °C | 30 mm/mL | 30 mm/mL | 23 mm | 31 mm/mL | 32 | 20 mm/mL | Inhibition Zone (IZ) Diameter [19]: approximately 30 mm
